“Also recorded” adds a separate entry of the source.
Legend:
aged C56BL/6 male mice = experiment: Frailty measurements in aged mice (Frailty Index, FRIGHT Age, AFRAID score); assay type: in vivo
Protocol: Frailty was measured in aged C56BL/6 male mice, starting at 18 months old (n=50 per group) monthly, over time compared with placebo-treated controls. NaR was administered in the water in low and high dosages of 60 and 400 mg/kg. The animals were group housed 4 per cage and the water was changed weekly. The animals were fed ad libitum and received daily photoperiods of approximately 12 hours of light alternating with 12 hours of darkness.
Three validated scoring methods, Frailty Index (Whitehead et al., “A clinical frailty index in aging mice: Comparisons with frailty index data in humans” J Gerontol A Biol Sci Med Sci. 69:621-632(2014)), FRIGHT Age (Schultz et al., “Age and life expectancy clocks based on machine learning analysis of mouse frailty” Nature Comm. 11(1):4618 (2020)) and AFRAID score (Schultz et al., “Age and life expectancy clocks based on machine learning analysis of mouse frailty” Nature Comm. 11(1):4618 (2020)) were conducted at 25 months of age. […]

[1] = test system: mature purpose-bred beagles and mongrels; experiment: Activity and safety of orally administered NaR, 28-day placebo-controlled study; assay type: in vivo
Text: A double blinded, placebo-controlled, non-randomized laboratory study to assess activity and safety was completed in 15 mature purpose-bred beagles and mongrels over a period of 28 days. The four males and 11 females ranged in age from 4-11 years, with a mean of 7.75 years. Body weights for beagles (n=12) were 9.5-15 kg and for mongrels (n=3) 24-40 kg. The animals were fitted with activity collars and housed in a room that allowed free movement for ˜ nine hours per day. They received three enrichment periods of 15 minutes per day consisting of interaction with caretakers. The activity of the animals was tracked 24 hours per day using actigraphy (accelerometers attached to the animal's collar) and force plate analysis for assessing changes to gait. A modified canine cognitive dysfunction rating (CCDR) (Madari et al., “Assessment of Severity and Progression of Canine Cognitive Dysfunction Syndrome Using the Canine Dementia Scale (CADES),” Applied Animal Behaviour Science 171: 138-145 (2015), which is hereby incorporated by reference in its entirety) and canine orthopedic index (COI) (Brown, D., “The Canine Orthopedic Index. Step 1: Devising the Items,” Veterinary Surgery 43: 232-240 (2014); Brown, D., “The Canine Orthopedic Index. Step 2: Psychometric Testing,” Veterinary Surgery 43: 241-246 (2014); and Brown, D., “The Canine Orthopedic Index. Step 3: Responsiveness Testing,” Veterinary Surgery 43: 247-254 (2014), which are hereby incorporated by reference in their entirety) were completed pretreatment, and on days 14 and 28. Physical examination, body weight, body condition score (BCS) and complete blood count and blood chemistry were evaluated pretreatment and weekly. The animals were dosed orally with capsules daily after an overnight fast.

NAD+ = experiment: Treated whole blood NAD+ pharmacokinetics after 7-day oral NaR (Examples 1 and 4); assay type: in vivo, Canis familaris (dog)/Beagle
Protocol: (§1) The appropriate number of NaR capsules were administered once daily to non-naïve male beagle dogs. Capsules were followed by at least 5 mL of tap water to ensure complete delivery. Animals were fed approximately 2 hours prior to dosing, with food removed approximately 2 hours post-dose. Samples for bioanalysis were collected during the pre-dose period (Day −7; based on Time Zero of 9 am) at 0, 0.25, 0.5, 1, 2, 4, 6, 8, 12, and 24 hours post-Time Zero. Samples were collected on Day 1 and 7 at 0, 0.25, 0.5, 1, 2, 4, 6, 8, 12, and 24 hours post dose, and on Days 3-5 at 2 hours post dose. Samples were analyzed for NAD+ using a bioassay.
A non-compartmental Pharmacokinetic (PK) approach consistent with oral route of administration was used to estimate PK parameters in Watson LIMS (version 7.5). All parameters were generated from individual concentrations in treated whole blood whenever practical. Mean values for each dose group were also reported. All concentration values were in ng/mL, and all time points were in hours. Nominal dose concentrations and sampling times were used. The observed maximum treated whole blood concentration (Cmax), time of Cmax (Tmax), and AUC (area under the concentration vs. time curve) were determined directly from the data during the entire 24 hour time interval post dosing. The dose levels were either 10, 20, or 30 mg/kg/day (Groups 1, 2, and 3, respectively). PK samples were collected on days −7 predose, 1 and 7 post dose, of a seven day once daily study. Samples on days 3, 4, and 5 postdose, at only one timepoint were collected but not included in PK parameter estimation.
Whenever possible, standard deviation and coefficient of variation determined by Watson LIMS were used. For analyses that were not supported by Watson, i.e. custom comparisons, Excel was used, and the statistics were reported as determined by Excel algorithms.

male Beagle dogs = experiment: Seven day repeat dose tolerability study of NaR; assay type: in vivo, Canis familaris (dog)/Beagle; conditions: oral capsule, 10, 20 and 30 mg/kg/day for seven days
Protocol: The objective of this study was to evaluate the tolerability and pharmacokinetic profile following 7-days of repeat dose administration of NaR.
NaR is provided as 100 mg capsule, size 4, stored at 18-26° C., and fisetin is provided as 100 mg capsule, size 0, stored at 18-26° C. Canis familaris (dog)/Beagle—nine non-naïve males, age 1-3 years, weight 7-11 kg.
as §1

purpose-bred beagles = experiment: Tolerability of orally administered NaR, single dose escalation and 7-day repeat dosing; assay type: in vivo
Protocol: The tolerability of NaR administered orally was determined in a two-phase laboratory study in purpose-bred beagles (male and female, 6.3-9.2 kg, 6 months old at the start of the study). The first phase of the study included single dose escalations of 100, 300, 1000 and 2000 mg/kg (n=4 per group). The second phase tested repeat dosing consisting of daily dosing over seven days of 100, 300 and 1000 mg/kg (n=6 per group). Administration occurred via oral gavage with an 18 French catheter into the stomach. The animals were assigned to groups by a stratified randomization scheme designed to achieve similar group mean body weights. Males and females were randomized separately.

NAD = experiment: Bioavailability and pharmacokinetics of NaR and fisetin: whole blood NAD (Example 6, Studies #1 and #2); assay type: in vivo, Canis familaris (dog)/Beagle
Protocol: A series of pharmacokinetic studies were conducted to evaluate the bioavailability of a series of dosages and dosing regimens as measured in whole blood in non-fasted, adult Beagle dogs. NaR, NMN, Fisetin, individually and combination dosing (NaR-Fisetin and NMN-Fisetin) were tested.
Tables 1 and 2 show the dosing regimens of Study #1 conducted over 7 days and Study #2 conducted over 28 days, respectively. In Study #1, three dosage combinations were tested (Groups 1-3). An additional group (Group 4) was included to test the effects of fasting on the whole blood concentration of NAD. In Study #2, the effects of each compound individually and in combination were evaluated (Groups 1-3). Study #2 contained another test group (Group 4), which was included to compare the effects of NMN vs NaR in combination with Fisetin by Day 7 to determine if the effects seen on NAD concentration were unique to NaR vs. NAD booster, in general. Baseline NAD concentrations sampled over 24 hours on day −7 served as controls for endogenous NAD concentrations.
Two mL blood samples were collected at each time point using K2EDTA as an anticoagulant from all animals in each dose group. A sample was obtained prior to dosing (Day −7 pre-dose). On Day −7, groups 1-3 had 1 sample collected prior to feeding, and at times 0, 0.25, 0.5, 1, 2, 4, 6, 8, 12, and 24 hours post-Time Zero. On Day 2, groups 1-3 had 1 sample collected prior to feeding (˜2 hr prior to Time Zero) and at times 0, 0.25, 0.5, 1, 2, 4, 6, 8, 12, and 24 hours post-dose. On Days 3-5, samples were collected 2 hours post-dose, and on Day 7 samples were collected prior to feeding Groups 1-3 (˜2 hours prior to Time Zero) from all animals, and at time points 0.25, 0.5, 1, 2, 4, 6, 8, 12, and 24 hours post-dose.
For Group 2, on Day 21, post-dosing, and on Day 35, one sample was collected prior to feeding, and at times 0, 0.25, 0.5, 1, 2, 4, 6, 8, 12, and 24 hours post-Time Zero. The samples were processed for NAD+.
Two mL blood samples were collected at each time point using K2EDTA as an anticoagulant from all animals in each dose group. On Day 0 each group had 1 sample collected at times 0, 0.5, 1, 2, 4, 8, and 12 hours post-Time Zero. On Days 1, 2, 3, and 7, each group had 1 sample collected at times 0, 0.5, 1, 2, 4, 8, and 12 hours post-dose. On Days 14, 21, and 28 Groups 1-3 had samples taken at 0, 0.5, 1, 2, and 12 hours post-dose.
Immediately after collection, the sample tubes were inverted multiple times to ensure homogenization, then placed in an ice water bath until analysis. All samples were processed for NAD+ analysis and Fisetin analysis.
The bioanalytical data was used in the generation of a pharmacokinetic data using parameters calculated for each individual animal for Days 2 and 7, including: Tmax, Cmax, AUC0-24 and T½, as described in the previous examples, and the effect of repeat dosing on exposure was assessed by statistical analyses, e.g., mean and standard deviation for numerical parameters.

[2] = treated dogs compared with controls, oral capsules daily, 28 days
[3] = Beagle dogs, oral NaR 10, 20, 30 mg/kg/day, post dose
[4] = beagles, oral gavage, highest dosage tested
[5] = beagles, oral gavage, single 100-2000 mg/kg and 7-day 100-1000 mg/kg
[6] = Beagle dogs, all dosing regimens of Studies #1 and #2

For `O=C([O-])c1ccc[n+]([C@@H]2O[C@H](CO)[C@@H](O)[C@H]2O)c1` [NaR, nicotinic acid riboside], the “Frailty vs controls, both treatment groups (60 and 400 mg/kg)” value (aged C56BL/6 male mice; in two of the three methods) was “significantly different”, the “Frailty vs controls by all three methods (Frailty Index, FRIGHT Age, AFRAID score)” value (aged C56BL/6 male mice; low dose 60 mg/kg in the water, end of the study, p<0.05) was “significantly less frail” and the adverse clinical observations ([1]; oral capsules daily, 28 days) was “No adverse clinical observations”. For the same compound, the “blood chemistry and hematology results” value ([1]; oral capsules daily, 28 days) was “remained within the reference ranges”, the “canine cognitive dysfunction rating (CCDR) and canine orthopedic index (COI)” value ([1]; pretreatment, days 14 and 28) was “No changes” and the “movement when resting (sleep), actigraphy” value [1, 2] was “less movement when resting”. The “overall activity (frequency and intensity), diurnal rhythm, actigraphy” value [1, 2] was “increase in overall activity”, the “Median Tmax of NAD+ in treated whole blood” value (NAD+; [3]) was “less than 2 hours” and the “Tmax of NAD+, range of values” (NAD+; [3]) was 0 to 2 h. The “NAD+ levels after oral capsule administration” value (NAD+; Beagle dogs, oral capsule, 10-30 mg/kg/day, 7 days) was “measurable increases”, the “Mean Cmax of NAD+, change between Day 1 and Day 7” value (NAD+; all dose groups (10, 20, 30 mg/kg/day)) was “accumulation; also recorded: increase” and the “NAD+ Cmax ratio between Day 7 and Day 1, individual animals” value (NAD+; highest dose group (30 mg/kg/day) compared to the others) was “clear increase”. For the same compound, the “NAD+ AUC0-24 ratio between Day 7 and Day 1, individual animals” value (NAD+; mid dose group (20 mg/kg/day) compared to the other two groups) was “higher value”, the “Bioavailability (conclusion from NAD+ bioanalysis)” value (NAD+; oral capsule, Beagle dogs) was “bioavailable” and the “test article-related effects on mortality or moribundity, clinical observations, body weight, food consumption; tolerability” value (male Beagle dogs) was “no test article-related effects; also recorded: well tolerated”. For the same compound, the “increase in sorbitol dehydrogenase (SDH) activity” value (purpose-bred beagles; 300 and 1000 mg/kg males, 300 mg/kg females, Day 2 vs pretreatment, low magnitude (e.g., 0 U/L to 2 U/L)) was “non-adverse”, the “maximum tolerated dosage, 7-day repeat dosing phase” value (purpose-bred beagles; [4]) was 1000 mg/kg/day and the “maximum tolerated dosage, single dosing phase” value (purpose-bred beagles; [4]) was 2000 mg/kg. The “Body weights and food consumption” value (purpose-bred beagles; [5]) was “unaffected by treatment”, the Survival (purpose-bred beagles; [5]) was “All animals survived” and the “treatment related clinical observations” value (purpose-bred beagles; [5]) was “no treatment related clinical observations”. The “median AUC0-24 of whole blood NAD” value (NAD; [6]) was 133,000 ng·h/mL, the “median Cmax of whole blood NAD” value (NAD; [6]) was 6990 ng/mL and the “NAD concentration from Day 7 to Day 28” value (NAD; NaR only dosing, 20 mg/kg) was “decrease”. The “NAD concentration from Day 1 to Day 7” value (NAD; NaR only dosing, all dose levels) was “increase” and the “AUC and NAD concentrations, NaR only dose levels compared” value (NAD; NaR only, dose of 20 mg/kg) was “highest AUC and NAD concentrations”.
For `O=c1c(O)c(-c2ccc(O)c(O)c2)oc2cc(O)ccc12` [fisetin, 3,3′,4′,7-tetrahydroxyflavone], the “NAD concentration at Day 28” value (NAD; fisetin only dosing) was “returned to baseline”, the “NAD concentration at days 7, 14 and 21” value (NAD; fisetin only dosing) was “decreased” and the “whole blood NAD concentration” value (NAD; fisetin only dosing, 20 mg/kg) was “below 7000 ng/mL”.
